What all share (format): in vivo
In experiment [1] the test system is velvetleaf (Abutilon theophrasti). Description: Test E pre-/postemergence: velvetleaf. The following applies: Preemergence, scale 0 to 100. An excerpt:
Seeds of plant species selected from corn (Zea mays), soybean (Glycine max), velvetleaf (Abutilon theophrasti), lambsquarters (Chenopodium album), poinsettia, wild (wild poinsettia, Euphorbia heterophylla), pigweed, palmer (palmer pigweed, Amaranthus palmeri), waterhemp (common waterhemp, Amaranthus rudis), smartweed (ladysthumb smartweed, Polygonum persicaria), surinam grass (Brachiaria decumbens), crabgrass, large (large crabgrass, Digitaria sanguinalis), crabgrass, Brazil (Brazilian crabgrass, Digitaria horizontalis), panicum, fall (fall panicum, Panicum dichotomiflorum), foxtail, giant (giant foxtail, Setaria faberii), foxtail, green (green foxtail, Setaria viridis), goosegrass (Eleusine indica), johnsongrass (Sorghum halepense), ragweed (common ragweed, Ambrosia elation), barnyardgrass (Echinochloa crus-galli), sandbur (southern sandbur, Cenchrus echinatus), arrowleaf sida (Sida rhombifolia), ryegrass, Italian (Italian ryegrass, Lolium multiflorum), dayflower, (VA) (Virginia dayflower, Commelina virginica), field bindweed (Convolvulus arvensis), cocklebur (common cocklebur, Xanthium strumarium), morningglory (Ipomoea coccinea), nightshade (eastern black nightshade, Solanum ptycanthum), kochia (Kochia scoparia), nutsedge, yellow (yellow nutsedge, Cyperus esculentus) and beggarticks (hairy beggarticks, Bidens pilosa) were planted into a silt loam soil and treated preemergence with test chemicals formulated in a non-phytotoxic solvent mixture which included a surfactant. At the same time, plants selected from these crop and weed species were planted in pots containing a growing medium comprising spaghnum peat moss, vermiculite, wetting agent and starter nutrients and treated with postemergence applications of some of the test chemicals formulated in the same manner. Plants ranged in height from 2 to 18 cm for postemergence treatments (1- to 4-leaf stage).
(§1) Treated plants and controls were maintained in a greenhouse for 14 to 21 days, after which time all species were compared to controls and visually evaluated. Plant response ratings, summarized in Table E, are based on a scale of 0 to 100 where 0 is no effect and 100 is complete control. A dash (-) response means no test result.

The subject of experiment [2] is corn (Zea mays). In words: Test F pre-/postemergence: corn.
Description: (§2) Seeds of plant species selected from corn (Zea mays), soybean (Glycine max), velvetleaf (Abutilon theophrasti), lambsquarters (Chenopodium album), poinsettia, wild (wild poinsettia, Euphorbia heterophylla), pigweed, palmer (palmer pigweed, Amaranthus palmeri), waterhemp (common waterhemp, Amaranthus rudis), surinam grass (Brachiaria decumbens), crabgrass, Brazil (Brazilian crabgrass, Digitaria horizontalis), panicum, fall (fall panicum Panicum dichotomiflorum), crabgrass, large (large crabgrass, Digitaria sanguinalis), foxtail, giant (giant foxtail, Setaria faberii), foxtail, green (green foxtail Setaria viridis), goosegrass (Eleusine indica), ragweed (common ragweed, Ambrosia elatior), barnyardgrass (Echinochloa crus-galli), sandbur (southern sandbur, Cenchrus echinatus), arrowleaf sida (Sida rhombifolia), ryegrass, Italian (Italian ryegrass, Lolium multiflorum), dayflower, VA (Virginia (VA) dayflower, Commelina virginica), field bindweed (Convolvulus arvensis), cocklebur (common cocklebur, Xanthium strumarium), morningglory (Ipomoea coccinea), nightshade (eastern black nightshade, Solanum ptycanthum), kochia (Kochia scoparia), nutsedge, yellow (yellow nutsedge, Cyperus esculentus), johnsongrass (Sorghum halepense), smartweed (ladysthumb smartweed, Polygonum persicaria), and beggarticks (hairy beggarticks, Bidens pilosa), were planted into a silt loam soil and treated preemergence with test chemicals formulated in a non-phytotoxic solvent mixture which included a surfactant. At the same time, plants selected from these crop and weed species and also pigweed (Amaranthus retroflexus), waterhemp_RES1 (ALS/Triazine resistant common waterhemp, Amaranthus rudis) and waterhemp_RES2 (ALS/HPPD resistant common waterhemp, Amaranthus rudis) were planted in pots containing a planting medium comprising spaghnum peat moss, vermiculite, wetting agent and starter nutrients treated with postemergence applications of some of the test chemicals formulated in the same manner. Plants ranged in height from 2 to 18 cm for postemergence treatments (1- to 4-leaf stage).
as §1

Experiment [3] concerns beggarticks (hairy beggarticks, Bidens pilosa). In words: Test F pre-/postemergence: beggarticks.
Description: as §2, §1

For experiment [4], the system named is Waterhemp. Description: Test C pre-/postemergence: waterhemp. The source says:
Seeds of plant species selected from blackgrass (Alopecurus myosuroides), bromegrass, downy (downy bromegrass, Bromus tectorum), foxtail, green (green foxtail, Setaria viridis), ryegrass, Italian (Italian ryegrass, Lolium multiflorum), winter wheat (Triticum aestivum), wild oat (Avena fatua), galium (catchweed bedstraw, Galium aparine), bermudagrass (Cynodon dactylon), surinam grass (Brachiaria decumbens), cocklebur (common cocklebur, Xanthium strumarium), corn (Zea mays), large crabgrass (Digitaria sanguinalis), woolly cupgrass (Eriochloa villosa), foxtail, giant (giant foxtail, Setaria faberii), goosegrass (Eleusine indica), johnsongrass (Sorghum halepense), kochia (Kochia scoparia), lambsquarters (Chenopodium album), morningglory (Ipomoea coccinea), nightshade (eastern black nightshade, Solanum ptycanthum), nutsedge, yellow (yellow nutsedge, Cyperus esculentus), pigweed (Amaranthus retroflexus), ragweed (common ragweed, Ambrosia elation), soybean (Glycine max), common (oilseed) sunflower (Helianthus annuus), Russian thistle (Salsola kali) and velvetleaf (Abutilon theophrasti) were planted into a blend of loam soil and sand and treated preemergence with test chemicals formulated in a non-phytotoxic solvent mixture which included a surfactant.
At the same time, plants selected from these crop and weed species and also barley (winter barley, Hordeum vulgare), canarygrass (Phalaris minor), chickweed (common chickweed, Stellaria media) windgrass (Apera spica-venti) and deadnettle (henbit deadnettle, Lamium amplexicaule) were planted in pots containing Redi-Earth® planting medium (Scotts Company, 14111 Scottslawn Road, Marysville, Ohio 43041) comprising spaghnum peat moss, vermiculite, wetting agent and starter nutrients and treated with postemergence applications of test chemicals formulated in the same manner. Plants ranged in height from 2 to 18 cm (1- to 4-leaf stage) for postemergence treatments.
Treated plants and controls were maintained in a greenhouse for 13 to 15 days, after which time all species were compared to controls and visually evaluated. Plant response ratings, summarized in Table C, are based on a scale of 0 to 100 where 0 is no effect and 100 is complete control. A dash (-) response means no test result.

Setting [5] is: Preemergence, 16 g ai/ha, scale 0 to 100 (0 no effect, 100 complete control).
[6] abbreviates: Preemergence, 31 g ai/ha, scale 0 to 100 (0 no effect, 100 complete control).
[7] abbreviates: Preemergence, 62 g ai/ha, scale 0 to 100.
Where [8] appears, read: Preemergence, 125 g ai/ha, scale 0 to 100.
The mark [9] stands for this setting: Postemergence, 8 g ai/ha, scale 0 to 100.
Setting [10] is: Postemergence, 16 g ai/ha, scale 0 to 100.
The mark [11] stands for this setting: Postemergence, 31 g ai/ha, scale 0 to 100.
Where [12] appears, read: Postemergence, 62 g ai/ha, scale 0 to 100.
The mark [13] stands for this setting: Postemergence, 125 g ai/ha, scale 0 to 100.
The mark [14] stands for this setting: Preemergence, 250 g ai/ha, scale 0 to 100, 0 no effect, 100 complete control.
[15] abbreviates: Postemergence, 4 g ai/ha, scale 0 to 100.
Setting [16] is: Preemergence, 4 g ai/ha, scale 0 to 100, 0 no effect, 100 complete control.
The mark [17] stands for this setting: Preemergence, 8 g ai/ha, scale 0 to 100, 0 no effect, 100 complete control.
The mark [18] stands for this setting: Postemergence, 31 g ai/ha, scale 0 to 100 (0 no effect, 100 complete control).

The record followed here is patent US9302999B2, “Substituted triazoles as herbicides” (E. I. DU PONT DE NEMOURS AND COMPANY, priority 2012, dated 2016).

As to `Cc1nn(-c2ccc(F)cc2)nc1Cc1ccnc(C(F)(F)F)c1` [Compound 16, 4-[[2-(4-fluorophenyl)-5-methyl-2H-1,2,3-triazol-4-yl]methyl]-2-(trifluoromethyl)pyridine], the “Plant response rating: Velvetleaf” value in experiment [1] (8 g ai/ha) amounted to 0; in experiment [1] (16 g ai/ha), 20; in experiment [1] (31 g ai/ha) it was 30; in experiment [1] (62 g ai/ha), 80; in experiment [1] (125 g ai/ha) it was 80.
Take `Cc1nn(-c2ccc(C(F)(F)F)cc2)nc1Cc1ccnc(C(F)(F)F)c1` [Compound 47, 4-[[5-methyl-2-[4-(trifluoromethyl)phenyl]-2H-1,2,3-triazol-4-yl]methyl]-2-(trifluoromethyl)pyridine]: the “Plant response rating: Velvetleaf” value is reported as 30 in experiment [1] (16 g ai/ha); 40 in experiment [1] (31 g ai/ha); 40 in experiment [1] (62 g ai/ha); 75 in experiment [1] (125 g ai/ha); 100 in experiment [1] (250 g ai/ha).
On to `Cc1nn(-c2ccc(F)cc2)nc1Oc1ccnc(C(F)(F)F)c1` [Compound 129, 4-[[2-(4-fluorophenyl)-5-methyl-2H-1,2,3-triazol-4-yl]oxy]-2-(trifluoromethyl)pyridine], for which the “Plant response rating: Velvetleaf” value was determined as 0 in experiment [1] (8 g ai/ha); 0 in experiment [1] (16 g ai/ha); 0 in experiment [1] (31 g ai/ha); 20 in experiment [1] (62 g ai/ha); 25 in experiment [1] (125 g ai/ha).
Turning to `Fc1ccc(-n2nc(Cc3ccnc(C(F)(F)F)c3)c(OCC(F)(F)F)n2)cc1` [Compound 142], the “Plant response rating, Corn” value in experiment [2] (setting [5]), in experiment [2] (setting [6]), in experiment [2] (setting [7]) and in experiment [2] (setting [8]) was 0 throughout. For the same compound, the “Plant response rating, Beggarticks” value in experiment [3] (setting [5]) is on record as 0; in experiment [3] (setting [6]), 40; in experiment [3] (setting [7]), 65; in experiment [3] (setting [8]) it was 75.
As to `Cc1nn(-c2ccc(F)c(F)c2)nc1Oc1ccnc(C(F)(F)F)c1` [Compound 145], the “Plant response rating, Corn” value in experiment [2] (setting [9]) came out at 5; in experiment [2] (setting [10]) it was 10; in experiment [2] (setting [11]), 10; in experiment [2] (setting [12]) it was 10; in experiment [2] (setting [13]), 10. Moreover, the “Plant response rating, Beggarticks” value is 10 in experiment [3] (setting [9]); 25 in experiment [3] (setting [10]); 30 in experiment [3] (setting [11]); 35 in experiment [3] (setting [12]); 45 in experiment [3] (setting [13]).
`CCCc1nn(-c2ccc(F)cc2)nc1Cc1ccnc(C(F)(F)F)c1` [Compound 153]: the “Plant response rating, Corn” value is 0 in experiment [2] (setting [5]); 0 in experiment [2] (setting [6]); 0 in experiment [2] (setting [7]); 0 in experiment [2] (setting [8]); 10 in experiment [2] (Preemergence, 250 g ai/ha, scale 0 to 100). Further, the “Plant response rating, Beggarticks” value is listed as 0 in experiment [3] (setting [5]), 25 in experiment [3] (setting [6]), 35 in experiment [3] (setting [7]) and 65 in experiment [3] (setting [8]). Further, the “Plant response rating, Waterhemp” value in experiment [4] (setting [14]) was found to be 100.
Turning to `Cc1nn(-c2ccc(C(F)(F)F)c(F)c2)nc1Cc1ccnc(C(F)(F)F)c1` [Compound 162], the “Plant response rating, Corn” value worked out at 5 in experiment [2] (setting [15]); 5 in experiment [2] (setting [9]); 10 in experiment [2] (setting [10]); 10 in experiment [2] (setting [11]); 10 in experiment [2] (setting [12]); 0 in experiment [2] (setting [16]). In addition, the “Plant response rating, Corn” value in experiment [2] (setting [17]), in experiment [2] (setting [5]), in experiment [2] (setting [6]) and in experiment [2] (setting [7]) was 0 in each case. For the same compound, the “Plant response rating, Beggarticks” value in experiment [3] (setting [15]) was determined as 15; in experiment [3] (setting [9]), 20; in experiment [3] (setting [10]), 25; in experiment [3] (setting [11]), 25; in experiment [3] (setting [12]) it was 30; in experiment [3] (setting [16]), 0. Also, the “Plant response rating, Beggarticks” value in experiment [3] (setting [17]), in experiment [3] (setting [5]), in experiment [3] (setting [6]) and in experiment [3] (setting [7]) was 0 in each case. Moreover, the “Plant response rating, Waterhemp” value in experiment [4] (setting [14]) came to 100.
Consider `CCc1nn(-c2ccc(F)cc2)nc1Oc1ccnc(C(F)(F)F)c1` [Compound 166], for which the “Plant response rating, Waterhemp” value in experiment [4] (setting [18]) is recorded as 90.
For `CCCc1nn(-c2ccc(C(F)(F)F)c(F)c2)nc1Oc1ccnc(C(F)(F)F)c1` [Compound 185], in experiment [4] (setting [18]), the “Plant response rating, Waterhemp” value is 90.
